Source: article PMC7753147, “High-throughput determination of protein affinities using unmodified peptide libraries in nanomolar scale” (iScience, 2020)

Key:
gephE = assay: µSPOT peptide microarray binding assay with recombinant gephE
native geph = assay: µSPOT peptide microarray binding assay with native geph from mouse brain lysate
Procedure: Preparation of Mouse Tissue Lysates
Whole mouse brains were obtained from C57BL/6J mice at >4 weeks of age and 80 immediately flash frozen in liquid N2. Tissue of mRFP-gephyrin knock-in animals of 1 year of age (provided by Christian Specht, IBENS, Paris) was processed the same way. Before lysis, whole mouse brains were weighted and cut into four pieces along the coronal and sagittal axis. For preparation of one lysate, two diagonally opposite pieces were transferred into a 1.5 mL reaction tube (Sarsted). Lysis was carried out on ice in 400 µL RIPA lysis buffer (150 mM 85 NaCl, 50 mM Tris-HCl (pH=8), 1% Nonident P-40 substitute, 0.5% DOC, 0.1% SDS (all v/v)), to which Ethylenediaminetetraacetic acid (5 mM end concentration) and 1 mini tablet of ROCHE complete protease inhibitor per 10 mL was added immediately before use, by hand crushing the brain material with a hand pestle in a 1.5 mL reaction tube. Lysis was completed by 1 min sonification on ice with a Sartorius Labsonic M Sonificator at 20% amplitude with 90 care to avoid heating the suspensions. Finally, Lysates were centrifuged for 15 min at 17,200×g and 4 °C. The SN was subsequently collected, transferred to a new 1.5 mL reaction tube, flash frozen in liquid N2 and stored at -80 °C until use.
95 µSPOT slides were blocked by incubation with 2.5 mL 2% (w/v) IGG free bovine serum

FL-geph = assay: µSPOT peptide microarray binding assay with full-length geph
[1] = µSPOT peptide microarray, GlyRβ full positional scan, recombinant gephE, intensity normalised to wild-type sequence DLRSNDFSIVGSLPR (=1)
[2] = µSPOT peptide microarray, GlyRβ full positional scan, native geph from mouse brain lysate, intensity normalised to wild-type sequence DLRSNDFSIVGSLPR (=1)
[3] = µSPOT peptide microarray, GlyRβ full positional scan, intensity normalised to wild-type sequence DLRSNDFSIVGSLPR (=1)
[4] = µSPOT full positional scan of GlyRβ 15-mer DLRSNDFSIVGSLPR, intensity normalised to wild-type sequence (= 1)
[5] = µSPOT full positional scan of GlyRβ 15-mer DLRSNDFSIVGSLPR, native geph, intensity normalised to wild-type sequence (= 1)

Sequence | gephE Binding Intensity [norm.] (gephE; [1]) | Native geph Binding Intensity [norm.] (native geph; [2]) | Fl-geph Binding Intensity [norm.] (FL-geph; [3]) | gephE Binding Intensity [norm.] (gephE; [4]) | Native geph Binding Intensity [norm.] (native geph; [5]) | Fl-geph Binding Intensity [norm.] (FL-geph; [4])
DLRSNDFPIVGSLPR [GlyRβ_Full_Positional_Scan_145, GlyR β 414-428 variant S421P] | 0.48 norm. | 0.25 norm. | 0.66 norm. | – | – | –
DLRSNDFSIVSSLPR [GlyRβ_Full_Positional_Scan_215, GlyR β 414-428 variant G424S] | – | – | – | 0.4 norm. | 0.2 norm. | 0.44 norm.
DLASNDFSIVGSLPR [GlyRβ_Full_Positional_Scan_041] | 0.95 norm. | 1.3 norm. | 1.13 norm. | – | – | –
DLRSNDFSIVDSLPR [GlyRβ_Full_Positional_Scan_210, GlyR β 414-428 variant G424D] | 0.22 norm. | 0.15 norm. | 0.16 norm. | – | – | –
DLRVNDFSIVGSLPR [GlyRβ_Full_Positional_Scan_066] | 0.91 norm. | 0.98 norm. | 0.9 norm. | – | – | –
DLRSNDFSQVGSLPR [GlyRβ_Full_Positional_Scan_180, GlyR β 414-428 variant I422Q] | 0.57 norm. | 0.32 norm. | 0.53 norm. | – | – | –
MLRSNDFSIVGSLPR [GlyRβ_Full_Positional_Scan_018] | 1.13 norm. | 1.2 norm. | 1.04 norm. | – | – | –
DLRSFDFSIVGSLPR [GlyRβ_Full_Positional_Scan_087] | 0.9 norm. | 0.55 norm. | 0.75 norm. | – | – | –
DLRSMDFSIVGSLPR [GlyRβ_Full_Positional_Scan_098] | 0.92 norm. | 0.91 norm. | 0.85 norm. | – | – | –
CLRSNDFSIVGSLPR [GlyRβ_Full_Positional_Scan_017] | 1.12 norm. | 0.99 norm. | 0.88 norm. | – | – | –
DLRSNDFSIFGSLPR [GlyRβ_Full_Positional_Scan_187, GlyR β 414-428 variant V423F] | 0.64 norm. | 0.43 norm. | 0.7 norm. | – | – | –
DLRSNTFSIVGSLPR [GlyRβ_Full_Positional_Scan_116] | 0.85 norm. | 0.75 norm. | 0.97 norm. | – | – | –
DQRSNDFSIVGSLPR [GlyRβ_Full_Positional_Scan_040] | 0.96 norm. | 1.16 norm. | 0.92 norm. | – | – | –
DLRSNDFSIVGSLPS [GlyRβ_Full_Positional_Scan_295] | – | – | – | 0.82 norm. | 1.3 norm. | 1.3 norm.
DLRSNDFIIVGSLPR [GlyRβ_Full_Positional_Scan_143, GlyR β 414-428 variant S421I] | 0.4 norm. | 0.18 norm. | 0.41 norm. | – | – | –
DLRSNDFSIAGSLPR [GlyRβ_Full_Positional_Scan_181, GlyR β 414-428 variant V423A] | 0.51 norm. | 0.47 norm. | 0.65 norm. | – | – | –
DLRSSDFSIVGSLPR [GlyRβ_Full_Positional_Scan_095] | 0.99 norm. | 0.85 norm. | 0.95 norm. | – | – | –
DLRSNDFSIVGILPR [GlyRβ_Full_Positional_Scan_223] | – | – | – | 0.62 norm. | 0.45 norm. | 1.05 norm.
DLRSEDFSIVGSLPR [GlyRβ_Full_Positional_Scan_091] | 0.96 norm. | 0.96 norm. | 1 norm. | – | – | –
DLRSNDFSIVFSLPR [GlyRβ_Full_Positional_Scan_207, GlyR β 414-428 variant G424F] | 0.43 norm. | 0.22 norm. | 0.54 norm. | – | – | –
DLRSNDFSIVGSLPD [GlyRβ_Full_Positional_Scan_290] | – | – | – | 0.96 norm. | 0.66 norm. | 1.21 norm.
DLRSNDFSIVGKLPR [GlyRβ_Full_Positional_Scan_234] | – | – | – | 0.81 norm. | 0.47 norm. | 0.96 norm.

Sequence | gephE Binding Intensity [norm.] (gephE; [1]) | Native geph Binding Intensity [norm.] (native geph; [2]) | Fl-geph Binding Intensity [norm.] (FL-geph; [3]) | gephE Binding Intensity [norm.] (gephE; [4]) | Native geph Binding Intensity [norm.] (native geph; [5]) | Fl-geph Binding Intensity [norm.] (FL-geph; [4])
DLSSNDFSIVGSLPR [GlyRβ_Full_Positional_Scan_055] | 0.87 norm. | 1.35 norm. | 1.4 norm. | – | – | –
DLRSNDFSIVLSLPR [GlyRβ_Full_Positional_Scan_204, GlyR β 414-428 variant G424L] | 0.57 norm. | 0.23 norm. | 0.53 norm. | – | – | –
DLRSNDFSIRGSLPR [GlyRβ_Full_Positional_Scan_192, GlyR β 414-428 variant V423R] | 0.6 norm. | 0.21 norm. | 0.73 norm. | – | – | –
DLRSDDFSIVGSLPR [GlyRβ_Full_Positional_Scan_090] | 0.96 norm. | 0.98 norm. | 0.94 norm. | – | – | –
DLRSNVFSIVGSLPR [GlyRβ_Full_Positional_Scan_106] | 0.81 norm. | 0.58 norm. | 0.95 norm. | – | – | –
DLRSNDFSIVGSLRR [GlyRβ_Full_Positional_Scan_272] | – | – | – | 0.59 norm. | 0.25 norm. | 0.93 norm.
DLRSNDFSIVGSLQR [GlyRβ_Full_Positional_Scan_280] | – | – | – | 0.53 norm. | 0.41 norm. | 0.77 norm.
DLRSNWFSIVGSLPR [GlyRβ_Full_Positional_Scan_108] | 0.79 norm. | 0.32 norm. | 0.65 norm. | – | – | –
YLRSNDFSIVGSLPR [GlyRβ_Full_Positional_Scan_009] | 1.05 norm. | 0.74 norm. | 1 norm. | – | – | –
DLRFNDFSIVGSLPR [GlyRβ_Full_Positional_Scan_067] | 0.92 norm. | 0.98 norm. | 0.92 norm. | – | – | –
DLRSNDFSIMGSLPR [GlyRβ_Full_Positional_Scan_198, GlyR β 414-428 variant V423M] | 0.44 norm. | 0.38 norm. | 0.86 norm. | – | – | –
DLRSNDFSIVGSMPR [GlyRβ_Full_Positional_Scan_258] | – | – | – | 0.69 norm. | 0.92 norm. | 1.08 norm.
DLRSNDFSIVGSIPR [GlyRβ_Full_Positional_Scan_243] | – | – | – | 0.94 norm. | 0.93 norm. | 1 norm.
DLVSNDFSIVGSLPR [GlyRβ_Full_Positional_Scan_046] | 0.94 norm. | 1.47 norm. | 1.27 norm. | – | – | –
DLRSNDFSEVGSLPR [GlyRβ_Full_Positional_Scan_171, GlyR β 414-428 variant I422E] | 0.24 norm. | 0.13 norm. | 0.25 norm. | – | – | –
DLRSNDFSIVGSLGR [GlyRβ_Full_Positional_Scan_262] | – | – | – | 0.6 norm. | 0.44 norm. | 0.82 norm.
DTRSNDFSIVGSLPR [GlyRβ_Full_Positional_Scan_036] | 0.94 norm. | 1.09 norm. | 0.97 norm. | – | – | –
DLRSNDFSIVGSLPE [GlyRβ_Full_Positional_Scan_291] | – | – | – | 0.82 norm. | 0.49 norm. | 0.84 norm.
ALRSNDFSIVGSLPR [GlyRβ_Full_Positional_Scan_001] | 1.06 norm. | 0.77 norm. | 1.11 norm. | – | – | –
DLRSNDFSIVGRLPR [GlyRβ_Full_Positional_Scan_232] | – | – | – | 0.87 norm. | 0.8 norm. | 1.06 norm.
DLRSNDFSIVTSLPR [GlyRβ_Full_Positional_Scan_216, GlyR β 414-428 variant G424T] | – | – | – | 0.49 norm. | 0.28 norm. | 0.47 norm.
